Test results taken from patent publication US20240025862A1, “SUBSTITUTED N-PHENYLURACILS AND SALTS THEREOF, AND USE THEREOF AS HERBICIDAL ACTIVE SUBSTANCES” (Bayer Aktiengesellschaft, priority 2020, published 2024).

Experiments:
Type in all cases: in vivo
Oryza sativa (ORYSA) = test: Post-emergence crop plant compatibility, greenhouse pot test (also comparative test C); details: vs untreated controls
Outline: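 Visual damage versus untreated plants (0% = like control, 100% = plants died) was scored about 3 weeks after a post-emergence spray in greenhouse pots. Treatment: one-leaf stage, WP or EC in water at 600 l/ha with 0.5% additive; a/b/c mark different dosages on the same crop.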

Zea mays (ZEAMX) = test: Post-emergence crop plant compatibility, greenhouse pot test; details: 1.25 g/ha, vs untreated controls
Outline: (§1)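 Visual % damage vs untreated controls, scored ~3 weeks post-spray (100% = dead, 0% = as control). Plants in sandy loam, greenhouse; treated at one-leaf stage, 2–3 wk after sowing. WP/EC, aqueous, 0.5% additive, 600 l/ha. Suffixes a/b/c = different dosages.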

[1] = test system: Triticum aestivum (TRZAS); test: as above; details: vs untreated controls
Outline: as §1

Veronica persica (VERPE) = test: Post-emergence herbicidal action, greenhouse pot test
Outline: (§2)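 Activity was scored by eye about 3 weeks after treatment against untreated plants, where 100% means dead plants and 0% means no difference. Plants at the one-leaf stage received a foliar spray of WP or EC formulations in water plus 0.5% additive (600 l/ha, up to 20 g/ha). Plants were grown in sandy loam pots in a greenhouse for 2–3 weeks before spraying.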

Viola tricolor (VIOTR) = test: as above
Outline: as §2

Avena fatua (AVEFA) = test: as above; details: rated visually after about 3 weeks vs untreated controls, 100% = plants have died
Outline: as §2

[2] = test system: Abutilon theophrasti (ABUTH); test: as above; details: rated visually after about 3 weeks vs untreated controls, 100% = plants have died
Outline: as §2

[3] = test system: Polygonum convolvulus (POLCO); test: as above
Outline: as §2

Lolium rigidum (LOLRI) = test: as above; details: dosage 20 g/ha
Outline: as §2

[4] = test system: Amaranthus retroflexus (AMARE); test: as above; details: rated visually after about 3 weeks vs untreated controls, 100% = plants have died
Outline: as §2

[5] = test system: Pharbitis purpurea (PHBPU); test: as above
Outline: as §2

[6] = test system: Echinochloa crus-galli (ECHCG); test: Post-emergence herbicidal action, greenhouse pot test (also comparative test C); details: for Post-emergence action at 1.25 g/ha against ECHCG in %: rated visually after about 3 weeks vs untreated controls, 100% = plants have died
Outline: (§3)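 Green parts of one-leaf-stage plants are sprayed at 600 l/ha with formulated compound plus 0.5% additive, then kept under optimum greenhouse conditions for about 3 weeks. Damage is scored visually, where 100% means dead plants and 0% means no difference from controls.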

Setaria viridis (SETVI) = test: as above; details: for Post-emergence action against SETVI: 20 g/ha
Outline: as §3

[7] = test system: Matricaria inodora (MATIN); test: as above
Outline: as §3

[8] = test system: Alopecurus myosuroides (ALOMY); test: as above; details: rated visually after about 3 weeks vs untreated controls, 100% = plants have died
Outline: as §3

Structure (SMILES)	Post-emergence action against ORYSA (crop plant compatibility) (Oryza sativa (ORYSA); 1.25 g/ha) [%]	Post-emergence action against VERPE (Veronica persica (VERPE); 1.25 g/ha) [%]	Post-emergence action against VERPE (Veronica persica (VERPE); 5 g/ha) [%]	Post-emergence action against VERPE (Veronica persica (VERPE); 20 g/ha) [%]	Post-emergence action against VIOTR (Viola tricolor (VIOTR); 1.25 g/ha) [%]	Post-emergence action against VIOTR (Viola tricolor (VIOTR); 5 g/ha) [%]	Post-emergence action against VIOTR (Viola tricolor (VIOTR); 20 g/ha) [%]	Post-emergence action at 20 g/ha against AVEFA in % (Avena fatua (AVEFA)) [%]	Post-emergence action at 1.25 g/ha against ABUTH in % [2] [%]	Post-emergence action at 5 g/ha against ABUTH in % [2] [%]	Post-emergence action at 20 g/ha against ABUTH in % [2] [%]	Post-emergence action against POLCO in % ([3]; dosage 20 g/ha) [%]	Post-emergence action against LOLRI in % (Lolium rigidum (LOLRI)) [%]	Post-emergence action at 1.25 g/ha against AMARE in % [4] [%]	Post-emergence action at 5 g/ha against AMARE in % [4] [%]	Post-emergence action at 20 g/ha against AMARE in % [4] [%]	Post-emergence action against PHBPU in % ([5]; dosage 1.25 g/ha) [%]	Post-emergence action against PHBPU in % ([5]; dosage 5 g/ha) [%]	Post-emergence action against PHBPU in % ([5]; dosage 20 g/ha) [%]	Post-emergence action against ECHCG in % ([6]; dosage 5 g/ha) [%]	other results
CCOCCOC(=O)COc1ccccc1Oc1cc(-n2c(=O)cc(C(F)(F)F)n(C)c2=O)c(F)cc1Cl [I.7-2]	0	80	100	100	100	100	100	90	100	100	100	100	80	100	100	100	100	100	100	100	Post-emergence action against ZEAMX (crop plant compatibility) (Zea mays (ZEAMX)): 0%; Post-emergence action against TRZAS (crop plant compatibility) ([1]; 1.25 g/ha): 20%; Post-emergence action against TRZAS (crop plant compatibility) ([1]; 5 g/ha): 20%; Post-emergence action against ECHCG in % ([6]; dosage 20 g/ha): 100%; Post-emergence action against SETVI (Setaria viridis (SETVI)): 100%; Post-emergence action against SETVI in % (Setaria viridis (SETVI); dosage 1.25 g/ha): 100%; Post-emergence action against SETVI in % (Setaria viridis (SETVI); dosage 5 g/ha): 100%; Post-emergence action against MATIN in % ([7]; dosage 1.25 g/ha): 80%; Post-emergence action against MATIN in % ([7]; dosage 5 g/ha): 80%; Post-emergence action against MATIN in % ([7]; dosage 20 g/ha): 100%; Post-emergence action at 5 g/ha against ALOMY in % [8]: 80%; Post-emergence action at 20 g/ha against ALOMY in % [8]: 100%
Cn1c(C(F)(F)F)cc(=O)n(-c2cc(Oc3ccccc3OCC(=O)OCc3ccncc3)c(Cl)cc2F)c1=O [I.7-278]	0	100	100	100	90	100	100	80	100	100	100	100	80	100	100	100	100	100	100	100	Post-emergence action against ZEAMX (crop plant compatibility) (Zea mays (ZEAMX)): 0%; Post-emergence action against POLCO in % ([3]; dosage 5 g/ha): 80%; Post-emergence action at 1.25 g/ha against ECHCG in % [6]: 80%; Post-emergence action against ECHCG in % ([6]; dosage 20 g/ha): 100%; Post-emergence action against SETVI (Setaria viridis (SETVI)): 100%; Post-emergence action against SETVI in % (Setaria viridis (SETVI); dosage 1.25 g/ha): 100%; Post-emergence action against SETVI in % (Setaria viridis (SETVI); dosage 5 g/ha): 100%; Post-emergence action against MATIN in % ([7]; dosage 5 g/ha): 80%; Post-emergence action against MATIN in % ([7]; dosage 20 g/ha): 100%; Post-emergence action at 5 g/ha against ALOMY in % [8]: 90%; Post-emergence action at 20 g/ha against ALOMY in % [8]: 100%
Cn1c(C(F)(F)F)cc(=O)n(-c2cc(Oc3ccccc3OCC(=O)OCCOC(F)(F)F)c(Cl)cc2F)c1=O [I.7-41]	0	80	100	100	100	100	100	80	100	100	100	100	80	100	100	100	100	100	100	100	Post-emergence action against ORYSA (crop plant compatibility) (Oryza sativa (ORYSA); 5 g/ha): 20%; Post-emergence action against TRZAS (crop plant compatibility) ([1]; 1.25 g/ha): 0%; Post-emergence action against TRZAS (crop plant compatibility) ([1]; 5 g/ha): 20%; Post-emergence action at 5 g/ha against AVEFA in % (Avena fatua (AVEFA); 5 g/ha): 80%; Post-emergence action against POLCO in % ([3]; dosage 5 g/ha): 100%; Post-emergence action at 1.25 g/ha against ECHCG in % [6]: 90%; Post-emergence action against ECHCG in % ([6]; dosage 20 g/ha): 100%; Post-emergence action against SETVI (Setaria viridis (SETVI)): 100%; Post-emergence action against SETVI in % (Setaria viridis (SETVI); dosage 1.25 g/ha): 100%; Post-emergence action against SETVI in % (Setaria viridis (SETVI); dosage 5 g/ha): 100%; Post-emergence action against MATIN in % ([7]; dosage 1.25 g/ha): 90%; Post-emergence action against MATIN in % ([7]; dosage 5 g/ha): 90%; Post-emergence action against MATIN in % ([7]; dosage 20 g/ha): 100%; Post-emergence action at 1.25 g/ha against ALOMY in % [8]: 100%; Post-emergence action at 5 g/ha against ALOMY in % [8]: 100%; Post-emergence action at 20 g/ha against ALOMY in % [8]: 100%
Cn1c(C(F)(F)F)cc(=O)n(-c2cc(Oc3ccccc3OCC(=O)OCc3cccnn3)c(Br)cc2F)c1=O [I.8-291]	0	100	100	100	100	100	100	90	100	100	100	100	80	100	100	100	100	100	100	100	Post-emergence action against ORYSA (crop plant compatibility) (Oryza sativa (ORYSA); 5 g/ha): 20%; Post-emergence action against TRZAS (crop plant compatibility) ([1]; 1.25 g/ha): 10%; Post-emergence action against TRZAS (crop plant compatibility) ([1]; 5 g/ha): 20%; Post-emergence action against POLCO in % ([3]; dosage 5 g/ha): 100%; Post-emergence action at 1.25 g/ha against ECHCG in % [6]: 100%; Post-emergence action against ECHCG in % ([6]; dosage 20 g/ha): 100%; Post-emergence action against SETVI (Setaria viridis (SETVI)): 100%; Post-emergence action against SETVI in % (Setaria viridis (SETVI); dosage 1.25 g/ha): 100%; Post-emergence action against SETVI in % (Setaria viridis (SETVI); dosage 5 g/ha): 100%; Post-emergence action against MATIN in % ([7]; dosage 20 g/ha): 100%; Post-emergence action at 1.25 g/ha against ALOMY in % [8]: 80%; Post-emergence action at 5 g/ha against ALOMY in % [8]: 90%; Post-emergence action at 20 g/ha against ALOMY in % [8]: 100%
CCOCCOC(=O)COc1ccccc1Oc1cc(-n2c(=O)cc(C(F)(F)F)n(C)c2=O)c(F)cc1Br [I.8-2]	0	100	100	100	100	100	100	100	100	100	100	100	90	100	100	100	100	100	100	100	Post-emergence action against ORYSA (crop plant compatibility) (Oryza sativa (ORYSA); 5 g/ha): 0%; Post-emergence action against ZEAMX (crop plant compatibility) (Zea mays (ZEAMX)): 20%; Post-emergence action against POLCO in % ([3]; dosage 5 g/ha): 100%; Post-emergence action against ECHCG in % ([6]; dosage 20 g/ha): 100%; Post-emergence action against SETVI (Setaria viridis (SETVI)): 100%; Post-emergence action against SETVI in % (Setaria viridis (SETVI); dosage 1.25 g/ha): 100%; Post-emergence action against SETVI in % (Setaria viridis (SETVI); dosage 5 g/ha): 100%; Post-emergence action against MATIN in % ([7]; dosage 1.25 g/ha): 100%; Post-emergence action against MATIN in % ([7]; dosage 5 g/ha): 100%; Post-emergence action against MATIN in % ([7]; dosage 20 g/ha): 100%; Post-emergence action at 1.25 g/ha against ALOMY in % [8]: 80%; Post-emergence action at 5 g/ha against ALOMY in % [8]: 100%; Post-emergence action at 20 g/ha against ALOMY in % [8]: 100%
